According to patent publication EP0840727B1, “3-HYDROXY-2(1H)-[…] AGENTS” (priority 1995, dated 1997):
Marks after values point to notes of the source that are not given here.

Legend:
Assay type in all cases: in vivo
[1] = Promoting excretion of U(VI) in mice by injected ligand
Description: (§1) Animal studies were completed using methods detailed in Radiation Protection Dosimetry, in press, P. W. Durbin et al., "In Vivo Chelation of Am(III), Pu(IV), Np(V) and U(VI) in Mice by TREN-(Me-3,2-HOPO)"; Radiation Protection Dosimetry, 17, No. 1, 1989, p. 351, P. W. Durbin et al., "Removal of ^238Pu(IV) from Mice by Polycatechoylate, -Hydroxamate or -Hydroxypyridinonate Ligands"; Radiation Research, 99, 1984, p. 85, P. W. Durbin et al., "Specific Sequestering Agents for the Actinides ..."; Radiation Research, 99, 1984, p. 106, P. W. Durbin et al., "Removal of Pu and Am from Beagles and Mice ..."; Radiation Research, 81, 1980, p. 170, R. D. Lloyd et al., and P. W. Durbin et al., "Specific Sequestering Agents for the Actinides ...". The foregoing articles are hereby incorporated by reference.
The ^232U was obtained from the Isotope Products Laboratory, Burbank, CA, and ^234,235U was obtained as U metal from long-held LBL storage. The two U sources were combined and dissolved in 6N HNO3, dried, and redissolved in 0.1 N HCl. The daughter radioactivities were removed by elution from a Dowex-50X4 column (22 cm length, 0.7 cm diameter, 1.5 mL·min^-1 flow rate) with 3.2N HCl. The U fractions (previously identified by a trial run with ^234,235U alone) were combined, dried, and redissolved in 0.14M NaCl at pH 5.5.
(§2) One of the comparative chelating agents TREN-Me-3,2-HOPO, was also tested for effectiveness in promoting excretion of ^241Am(III), ^237Np(V), and ^232U(VI) by injection into mice, as follows: Mice, in groups of five, each received an intravenous injection of (a) 1100 Bq of ^241AM(III) in 0.2 mL of citrate buffer, (b) 150 Bq of ^232UO2Cl2 plus 3.6 mg of ^235UO2Cl2 in 0.2 mL of saline, or (c) 200 Bq of ^237NpO2Cl (7.5 mg of ^237NpO2Cl) in 0.2 mL of saline. Three to five minutes later, […] of TREN-Me-3,2-HOPO was injected intraperitoneally in 0.5 mL of saline. The mice were killed 24 hours after the actinide injection, frozen, and dissected after partial thawing. The skeleton, soft tissues, and separated excreta were radioanalyzed by counting the ^241Am gamma rays, or the alpha particles emitted by ^237Np or ^232U (and its ingrowing daughters). Removal of those actinides from mice by injected TREN-Me-3,2-HOPO is summarized in Table 5, which also includes data for mice similarly treated with CaNa3-DTPA and for actinide-injected controls. […] The structure of Am(III)-TREN-Me-3,2-HOPO is considered to resemble that of the Gd(III) complexes (see example 20). Complexation of the fraction of Np(V) that is reduced in vivo to Np(IV) is considered to resemble that of Pu(IV). Complexation of U(VI) is considered to take place through binding to UO2^2+.

[2] = Promoting excretion of 241Am(III) in mice by injected ligand
Description: as §1
(§3) Radionuclides used in the animal studies came from a variety of sources. However, they can be purchased commercially. The ^238Pu(IV) citrate and ^241Am(III) citrate solutions were prepared for animal injection by 8- to 10-fold dilution with 0.14M NaCl (pH 4) of concentrated stock solutions (0.08M sodium citrate buffer) that had been held in frozen storage at Lawrence Berkeley Laboratory (hereinafter LBL) for several years. [The ^238Pu(IV) was originally obtained from D. R. Atherton at the University of Utah Radiobiology Laboratory, Salt Lake City. The ^241Am(III) solution had been obtained many years earlier from the LBL Actinide Chemistry group.]
as §2

[3] = Promoting excretion of 237Np(V) in mice by injected ligand
Description: as §1
The ^237Np(V) was obtained from J. Bucher of the LBL Actinide Chemistry group as NpO2Cl in 0.1 M HCl. It was diluted to the desired radioactivity concentration in 0.14M NaCl and the pH was adjusted to about 4.5 with NaOH just before use.
as §2

[4] = Promoting excretion of 238Pu(IV) in mice by injected ligands; conditions: ligand 30 µmol kg^-1 ip at 1 h after iv ^238Pu(IV) citrate, kill at 24 h
Description: as §1, §3
The novel chelating agents of the present invention and comparative compounds were tested for their effectiveness in promoting excretion ^238Pu(IV) in nice by injected ligands as follows. Mice, in groups of five, each received an intravenous injection of 1850 Bq ^238Pu(IV) in 0.2 mL of citrate buffer. One hour later, 30 µmol/kg of ligand was injected intraperitoneally in 0.5 mL of saline. The mice were killed 24 hours after the Pu injection, frozen, and dissected after partial thawing. The ^238Pu in skeleton, soft tissues, and separated excreta was determined by counting the ^234U L x-rays. Results of removal of ^238Pu(IV) from mice by injected ligands are summarized in Table 3, which also includes data for CaNa3-DTPA and other reference ligands and the Pu-injected controls. […] While the case of multidente 1,2-HOPO and catechoylamide chelating agents, octadentates are always better chelating agents than the corresponding hexadentates and tetradentates.

[5] = U(VI), ligand 30 mmol.kg-1 i.p at 3 to 5 min after actinide i.v., kill at 24 h
[6] = U(VI), ligand 30 mmol.kg-1 i.p at 3 to 5 min after actinide i.v., kill at 24 h, pooled
[7] = intraperitoneally three to five minutes after actinide
[8] = Am(III), ligand 30 mmol.kg-1 i.p at 3 to 5 min after actinide i.v., kill at 24 h
[9] = Am(III), ligand 30 mmol.kg-1 i.p at 3 to 5 min after actinide i.v., kill at 24 h, pooled
[10] = Np(V), ligand 30 mmol.kg-1 i.p at 3 to 5 min after actinide i.v., kill at 24 h
[11] = Np(V), ligand 30 mmol.kg-1 i.p at 3 to 5 min after actinide i.v., kill at 24 h, pooled

Structure (SMILES): Cn1ccc(C(=O)NCCN(CCNC(=O)c2ccn(C)c(=O)c2O)CCNC(=O)c2ccn(C)c(=O)c2O)c(O)c1=O [TREN-Me-3,2-HOPO, N,N,N,-Tris[(3-hydroxy-1-methyl-2-oxo-1,2-dihydropyridin-4-yl)carboxamidoethyl]-amine]
- percent of injected actinide ± SD at 24 h, tissues: kidneys [1, 5]: 9.4 ± 6.0^d,e percent of injected actinide
- percent of injected actinide ± SD at 24 h, tissues: skeleton [1, 5]: 16 ± 2.4% of injected actinide
- percent of injected actinide ± SD at 24 h, tissues: soft tissue [1, 5]: 1.6 ± 0.3% of injected actinide
- percent of injected actinide ± SD at 24 h, whole body [1, 5]: 27 ± 8.5^d,e percent of injected actinide
- percent of injected actinide ± SD at 24 h, tissues: liver ([1]; U(VI), ligand 30 mmol.kg-1 i.p at 3 to 5 min after actinide i.v., kill at 24 h, livers of some groups pooled): 0.6 ± 0.3% of injected actinide
- percent of injected actinide at 24 h, excreta: feces and GI contents [1, 6]: 2.3% of injected actinide
- percent of injected actinide at 24 h, excreta: urine 0-24 h [1, 6]: 70% of injected actinide
- U burden in the kidneys compared with controls (in words) [1, 7]: more than one-half of the U burden in the kidneys was removed
- Am content of tissues compared with controls (in words) ([2]; 30 µmol/kg intraperitoneally three to five minutes after actinide): the Am content of all tissues was greatly reduced
- percent of injected actinide ± SD at 24 h, tissues: liver [2, 8]: 1.0 ± 0.6^d,e percent of injected actinide
- percent of injected actinide ± SD at 24 h, tissues: skeleton [2, 8]: 8.1 ± 1.6^d percent of injected actinide
- percent of injected actinide ± SD at 24 h, tissues: soft tissue [2, 8]: 1.6 ± 0.6^d percent of injected actinide
- percent of injected actinide ± SD at 24 h, whole body [2, 8]: 11 ± 1.4^d,e percent of injected actinide
- percent of injected actinide at 24 h, excreta: feces and GI contents [2, 9]: 38% of injected actinide
- percent of injected actinide at 24 h, excreta: urine 0-24 h [2, 9]: 51% of injected actinide
- percent of injected actinide at 24 h, tissues: kidneys [2, 9]: 0.2% of injected actinide
- percent of injected actinide ± SD at 24 h, tissues: skeleton [3, 10]: 34 ± 4.5% of injected actinide
- percent of injected actinide ± SD at 24 h, tissues: soft tissue [3, 10]: 3.1 ± 1.1% of injected actinide
- percent of injected actinide ± SD at 24 h, whole body [3, 10]: 42 ± 11^d,e percent of injected actinide
- percent of injected actinide at 24 h, excreta: feces and GI contents [3, 11]: 17% of injected actinide
- percent of injected actinide at 24 h, excreta: urine 0-24 h [3, 11]: 40% of injected actinide
- percent of injected actinide at 24 h, tissues: kidneys [3, 11]: 1.0% of injected actinide
- Np content of the soft tissues compared with controls (in words) [3, 7]: the Np content of the soft tissues was significantly reduced
- percent of injected ^238Pu ± SD at 24 h, tissues: liver [4]: 5.0 ± 2.2^d percent of injected ^238Pu
- percent of injected ^238Pu ± SD at 24 h, tissues: skeleton [4]: 10 ± 1.1% of injected ^238Pu
- percent of injected ^238Pu ± SD at 24 h, tissues: soft tissue [4]: 2.5 ± 0.8% of injected ^238Pu
- percent of injected ^238Pu ± SD at 24 h, whole body [4]: 18 ± 2.7^d percent of injected ^238Pu
- percent of injected ^238Pu at 24 h, excreta: feces and GI contents ([4]; pooled samples): 43.3% of injected ^238Pu
- percent of injected ^238Pu at 24 h, excreta: urine 0-24 h ([4]; pooled samples): 37% of injected ^238Pu
- percent of injected ^238Pu at 24 h, tissues: kidneys ([4]; pooled samples): 0.6% of injected ^238Pu
